What was measured:
Acetylcholinesterase [1] = biological target: Acetylcholinesterase (Electrophorus electricus, UniProt O42275)
Description: (§1) Inhibitory activity against Acetylcholinesterase

Acetylcholinesterase [2] = biological target: T1, Acetylcholinesterase (Torpedo californica, UniProt P04058); design: species or system Tetronarce californica
Description: as §1

Acetylcholinesterase [3] = biological target: T1, Acetylcholinesterase
Description: as §1

Acetylcholinesterase [4] = biological target: Acetylcholinesterase (Homo sapiens, UniProt P22303)
Chain of Acetylcholinesterase (Homo sapiens, UniProt P22303) (P22303 whole entry): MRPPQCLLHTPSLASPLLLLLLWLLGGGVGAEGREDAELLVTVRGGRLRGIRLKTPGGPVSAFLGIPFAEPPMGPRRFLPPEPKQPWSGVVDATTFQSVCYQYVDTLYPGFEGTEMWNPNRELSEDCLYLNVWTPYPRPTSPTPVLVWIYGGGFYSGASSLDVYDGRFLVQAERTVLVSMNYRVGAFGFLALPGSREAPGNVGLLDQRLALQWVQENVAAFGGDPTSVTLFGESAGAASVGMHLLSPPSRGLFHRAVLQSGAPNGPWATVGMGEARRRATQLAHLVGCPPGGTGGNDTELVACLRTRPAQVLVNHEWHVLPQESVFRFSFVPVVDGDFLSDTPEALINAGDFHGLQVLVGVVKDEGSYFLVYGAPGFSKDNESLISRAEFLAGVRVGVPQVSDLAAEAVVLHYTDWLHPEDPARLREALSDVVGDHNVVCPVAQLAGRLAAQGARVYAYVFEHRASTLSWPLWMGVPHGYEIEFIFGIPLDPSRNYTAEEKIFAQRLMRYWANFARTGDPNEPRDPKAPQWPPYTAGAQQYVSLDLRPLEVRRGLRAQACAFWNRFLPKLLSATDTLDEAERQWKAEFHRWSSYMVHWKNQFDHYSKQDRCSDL
Description: as §1

Chain of Acetylcholinesterase (Electrophorus electricus, UniProt O42275) (O42275 whole entry): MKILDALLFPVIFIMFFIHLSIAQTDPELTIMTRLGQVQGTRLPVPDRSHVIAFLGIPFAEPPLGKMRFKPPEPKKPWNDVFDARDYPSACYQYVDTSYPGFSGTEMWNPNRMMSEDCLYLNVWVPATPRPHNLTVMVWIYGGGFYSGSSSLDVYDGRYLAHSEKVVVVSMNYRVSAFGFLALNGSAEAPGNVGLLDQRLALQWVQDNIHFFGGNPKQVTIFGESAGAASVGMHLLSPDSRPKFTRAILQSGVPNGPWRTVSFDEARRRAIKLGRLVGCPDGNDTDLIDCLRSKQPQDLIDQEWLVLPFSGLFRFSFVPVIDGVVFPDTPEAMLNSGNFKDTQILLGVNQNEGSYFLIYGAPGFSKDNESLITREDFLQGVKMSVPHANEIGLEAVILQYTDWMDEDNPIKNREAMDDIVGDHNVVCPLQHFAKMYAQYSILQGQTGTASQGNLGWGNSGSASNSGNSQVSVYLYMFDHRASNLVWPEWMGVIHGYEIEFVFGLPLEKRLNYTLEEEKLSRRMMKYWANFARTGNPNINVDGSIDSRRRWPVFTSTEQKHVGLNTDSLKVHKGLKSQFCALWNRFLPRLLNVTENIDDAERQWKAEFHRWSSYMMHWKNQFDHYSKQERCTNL
T1 sequence (P04058 whole entry): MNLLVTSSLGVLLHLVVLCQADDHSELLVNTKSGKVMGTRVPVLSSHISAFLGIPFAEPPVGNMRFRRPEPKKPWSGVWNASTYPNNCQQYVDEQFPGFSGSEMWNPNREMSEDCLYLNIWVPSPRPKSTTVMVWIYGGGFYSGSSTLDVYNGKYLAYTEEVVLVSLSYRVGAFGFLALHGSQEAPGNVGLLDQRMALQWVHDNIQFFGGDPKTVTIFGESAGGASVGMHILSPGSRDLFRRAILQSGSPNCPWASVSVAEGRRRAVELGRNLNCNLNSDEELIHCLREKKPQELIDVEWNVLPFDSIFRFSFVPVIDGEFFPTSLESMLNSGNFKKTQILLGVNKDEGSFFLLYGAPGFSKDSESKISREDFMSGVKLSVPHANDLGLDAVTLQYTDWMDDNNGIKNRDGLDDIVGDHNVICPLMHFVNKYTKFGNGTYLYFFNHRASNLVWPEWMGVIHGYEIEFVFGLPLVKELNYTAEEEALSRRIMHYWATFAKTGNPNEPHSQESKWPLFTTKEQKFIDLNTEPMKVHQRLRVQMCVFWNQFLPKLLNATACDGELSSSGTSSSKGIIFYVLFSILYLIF

Compound | IC50 (Acetylcholinesterase [1]) | IC50 (Acetylcholinesterase [2]) | other results
COc1cccc([N+](C)(C)C)c1 | 597 µM |  | 
CCC(=O)Oc1cccc([N+](C)(C)C)c1 | 5.97 µM |  | 
CCC(=O)Oc1ccc(C)c([N+](C)(C)C)c1 | 69.1 µM |  | 
CCC(=O)Oc1cccc([N+](C)(C)C)c1C | 754 µM |  | 
CC(=O)Oc1cccc([N+](C)(C)C)c1C | 40.8 µM |  | 
COc1ccc(C)c([N+](C)(C)C)c1 | 345 µM |  | 
Cc1ccc([N+](C)(C)C)cc1O | 3.11 µM |  | 
Cc1ccc(O)cc1[N+](C)(C)C | 2.83 µM |  | 
CCC(=O)Oc1cc([N+](C)(C)C)ccc1C | 3.77 µM |  | 
COc1cc([N+](C)(C)C)ccc1C | 122 µM |  | 
CC(=O)Oc1cc([N+](C)(C)C)ccc1C | 0.659 µM |  | 
C[N+](C)(C)CCCBr |  | 87.9 µM | 
CC(C)(C)[C@@]1(O)C[N+](C)(C)CCO1 |  | 3710 µM | 
C[N+]1(C)CCO[C@@](O)(c2ccc(Cl)cc2)C1 |  | 8130 µM | 
C=CCC[N+](C)(C)C |  | 848 µM | 
C[C@@]1(O)C[N+](C)(C)CCO1 |  | 1730 µM | 
C[N+](C)(C)c1cccc(N)c1 |  | 192 µM | 
CCCC(=O)OCC[N+](C)(C)C |  | 229 µM | 
C[N+](C)(C)CCS |  | 440 µM | 
CCOCC[N+](C)(C)C |  | 1160 µM | 
C[N+](C)(C)c1cccc([N+](=O)[O-])c1 |  |  | IC50 (Acetylcholinesterase [3]): 628 µM
C=CCCCN(C)C |  | 1130 µM | 
CCCC(=O)SCC[N+](C)(C)C |  | 126 µM | 
C[N+](C)(C)CCCCI |  | 471 µM | 
C[N+]1(C)CCO[C@H](O)C1 |  | 1760 µM | 
C[N+]1(C)CCO[C@@](O)(c2ccc(N)cc2)C1 |  | 691 µM | 

Compound | IC50 (Acetylcholinesterase [1]) | IC50 (Acetylcholinesterase [2]) | other results
CC(=O)CCC[N+](C)(C)C |  | 84.8 µM | 
CCCCCC[N+](C)(C)C |  | 816 µM | 
CCSCC[N+](C)(C)C |  | 1510 µM | 
C[N+](C)(C)CCCCCBr |  | 534 µM | 
COc1cccc([N+](C)(C)C)c1C | 239 µM |  | 
CC(=O)Oc1ccc(C)c([N+](C)(C)C)c1 | 5.34 µM |  | 
CC(=O)Nc1cccc([N+](C)(C)C)c1 |  | 1000 µM | 
C[N+]1(C)CCO[C@@](O)(c2ccc(C#N)cc2)C1 |  | 11600 µM | 
Cc1c(O)cccc1[N+](C)(C)C | 141 µM |  | 
CC(=O)Oc1cccc([N+](C)(C)C)c1 | 3.01 µM |  | 
C=CC[N+](C)(C)C |  | 2920 µM | 
C[N+]1(C)CCO[C@@](O)(C(F)(F)F)C1 |  | 3830 µM | 
CC(=O)Nc1ccc([C@@]2(O)C[N+](C)(C)CCO2)cc1 |  | 2070 µM | 
C[N+](C)(C)CCCCBr |  | 597 µM | 
C[N+](C)(C)c1cccc(O)c1 | 0.973 µM |  | 
C[N+]1(C)CCO[C@@](O)(c2ccc([N+](=O)[O-])cc2)C1 |  | 5120 µM | 
CNC(=O)Oc1ccc2c(c1)[C@]1(C)CC[N+](C)(C)C1N2C (some centres not stated) |  |  | IC50 (Acetylcholinesterase [4]): 0.034 µM
CN1CC[C@@]2(C)c3cc(OC(=O)Nc4ccccc4)ccc3N(C)C12 (some centres not stated) |  |  | IC50 (Acetylcholinesterase [4]): 0.35 µM
CN(C)C(=O)Oc1ccc2c(c1)[C@]1(C)CCN(C)C1N2C (some centres not stated) |  |  | IC50 (Acetylcholinesterase [4]): 0.97 µM
CN1CC[C@@]2(C)c3cc(OC(=O)Nc4ccc(Cl)cc4)ccc3N(C)C12 (some centres not stated) |  |  | IC50 (Acetylcholinesterase [4]): 1.8 µM
CCCCNC(=O)Oc1ccc2c(c1)[C@]1(C)CCN(C)C1N2C (some centres not stated) |  |  | IC50 (Acetylcholinesterase [4]): 0.152 µM
CC(C)NC(=O)Oc1ccc2c(c1)[C@]1(C)CCN(C)C1N2C (some centres not stated) |  |  | IC50 (Acetylcholinesterase [4]): 35 µM
CCN(CC)C(=O)Oc1ccc2c(c1)[C@]1(C)CCN(C)C1N2C (some centres not stated) |  |  | IC50 (Acetylcholinesterase [4]): 40 µM
CN(C(=O)NCc1ccccc1)C(=O)Oc1ccc2c(c1)[C@]1(C)CCN(C)C1N2C (some centres not stated) |  |  | IC50 (Acetylcholinesterase [4]): 6.3 µM
CN1CC[C@@]2(C)c3cc(OC(=O)NCc4ccccc4)ccc3N(C)C12 (some centres not stated) |  |  | IC50 (Acetylcholinesterase [4]): 0.46 µM
C[N+](C)(C)CCCl [CHLORMEQUAT CHLORIDE] |  | 2390 µM | 

Reference: ChEMBL document CHEMBL1129057, “Structure-based alignment and comparative molecular field analysis of acetylcholinesterase inhibitors” (J Med Chem, 1996)
